Reference: PubChem BioAssay (NCI)
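Assay format: 96-well plates, 48-hour exposure. TGI marks complete inhibition of growth.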

What was measured:
Experiment in all cases: inhibition of tumour cell growth, NCI panel, 48 h
SK-MEL-28 melanoma = system: SK-MEL-28 melanoma
M14 melanoma = system: M14 melanoma
OVCAR-3 ovarian = system: OVCAR-3 ovarian
MCF7 breast = system: MCF7 breast
LOX IMVI melanoma = system: LOX IMVI melanoma
OVCAR-8 ovarian = system: OVCAR-8 ovarian
SN12C renal = system: SN12C renal
SNB-19 CNS = system: SNB-19 CNS
RPMI-8226 leukemia = system: RPMI-8226 leukemia
HCT-116 colon = system: HCT-116 colon
SF-295 CNS = system: SF-295 CNS
EKVX NSCLC = system: EKVX NSCLC
DU-145 prostate = system: DU-145 prostate
HOP-92 NSCLC = system: HOP-92 NSCLC
NCI-H23 lung = system: NCI-H23 lung
T-47D breast = system: T-47D breast
MDA-MB-231 breast = system: MDA-MB-231 breast
SK-MEL-5 melanoma = system: SK-MEL-5 melanoma
HL-60(TB) leukemia = system: HL-60(TB) leukemia
COLO 205 colon = system: COLO 205 colon
HT29 colon = system: HT29 colon
SNB-75 CNS = system: SNB-75 CNS
HCT-15 colon = system: HCT-15 colon
HS 578T breast = system: HS 578T breast
UACC-257 melanoma = system: UACC-257 melanoma
K-562 leukemia = system: K-562 leukemia
A498 renal = system: A498 renal
PC-3 prostate = system: PC-3 prostate
HCC-2998 colon = system: HCC-2998 colon
HOP-62 NSCLC = system: HOP-62 NSCLC
MDA-MB-435 = system: MDA-MB-435
UACC-62 melanoma = system: UACC-62 melanoma
SK-OV-3 ovarian = system: SK-OV-3 ovarian
NCI-H460 lung = system: NCI-H460 lung
SW-620 colon = system: SW-620 colon
SF-539 CNS = system: SF-539 CNS
NCI/ADR-RES ovarian = system: NCI/ADR-RES ovarian
NCI-H522 lung = system: NCI-H522 lung
RXF 393 renal = system: RXF 393 renal
OVCAR-4 ovarian = system: OVCAR-4 ovarian
MOLT-4 leukemia = system: MOLT-4 leukemia
U251 CNS = system: U251 CNS
IGROV1 ovarian = system: IGROV1 ovarian
CAKI-1 renal = system: CAKI-1 renal
KM12 colon = system: KM12 colon
SK-MEL-2 melanoma = system: SK-MEL-2 melanoma
BT-549 breast = system: BT-549 breast
NCI-H226 lung = system: NCI-H226 lung
A549 NSCLC = system: A549 NSCLC
SF-268 CNS = system: SF-268 CNS
786-0 renal = system: 786-0 renal
TK-10 renal = system: TK-10 renal
UO-31 renal = system: UO-31 renal
CCRF-CEM leukemia = system: CCRF-CEM leukemia
OVCAR-5 ovarian = system: OVCAR-5 ovarian
ACHN renal = system: ACHN renal
MALME-3M melanoma = system: MALME-3M melanoma

Measured: TGI

C[C@@H]1CCC[C@]2(C)O[C@H]2CC[C@@](C)(O)[C@@H]2CC3=C(CO)C(=O)O[C@H]3[C@H]1O2
> 5 µM: HL-60(TB) leukemia
> 50 µM: SK-MEL-28 melanoma | M14 melanoma | OVCAR-3 ovarian | MCF7 breast | LOX IMVI melanoma | OVCAR-8 ovarian | SN12C renal | SNB-19 CNS | RPMI-8226 leukemia | HCT-116 colon | SF-295 CNS | EKVX NSCLC | DU-145 prostate | HOP-92 NSCLC | NCI-H23 lung | T-47D breast | MDA-MB-231 breast | SK-MEL-5 melanoma | COLO 205 colon | HT29 colon | SNB-75 CNS | HCT-15 colon | HS 578T breast | UACC-257 melanoma | K-562 leukemia | A498 renal | PC-3 prostate | HCC-2998 colon | HOP-62 NSCLC | MDA-MB-435 | UACC-62 melanoma | SK-OV-3 ovarian | NCI-H460 lung | SW-620 colon | SF-539 CNS | NCI/ADR-RES ovarian | NCI-H522 lung | RXF 393 renal | OVCAR-4 ovarian | MOLT-4 leukemia | U251 CNS | IGROV1 ovarian | CAKI-1 renal | KM12 colon | SK-MEL-2 melanoma | BT-549 breast | NCI-H226 lung | A549 NSCLC | SF-268 CNS | 786-0 renal | TK-10 renal | UO-31 renal | CCRF-CEM leukemia | OVCAR-5 ovarian | ACHN renal

Cc1cccc(C)c1NC(=O)/C(Cc1nc2ccc([N+](=O)[O-])cc2[nH]c1=O)=N\NC(N)=O
> 100 µM: SK-MEL-28 melanoma | M14 melanoma | OVCAR-3 ovarian | MALME-3M melanoma | MCF7 breast | LOX IMVI melanoma | OVCAR-8 ovarian | SN12C renal | SNB-19 CNS | RPMI-8226 leukemia | HCT-116 colon | SF-295 CNS | EKVX NSCLC | DU-145 prostate | HOP-92 NSCLC | NCI-H23 lung | T-47D breast | MDA-MB-231 breast | SK-MEL-5 melanoma | HL-60(TB) leukemia | COLO 205 colon | HT29 colon | SNB-75 CNS | HCT-15 colon | HS 578T breast | UACC-257 melanoma | K-562 leukemia | A498 renal | PC-3 prostate | HCC-2998 colon | MDA-MB-435 | UACC-62 melanoma | SK-OV-3 ovarian | NCI-H460 lung | SW-620 colon | SF-539 CNS | NCI/ADR-RES ovarian | NCI-H522 lung | OVCAR-4 ovarian | MOLT-4 leukemia | U251 CNS | IGROV1 ovarian | CAKI-1 renal | KM12 colon | SK-MEL-2 melanoma | BT-549 breast | NCI-H226 lung | A549 NSCLC | SF-268 CNS | 786-0 renal | TK-10 renal | UO-31 renal | CCRF-CEM leukemia | OVCAR-5 ovarian | ACHN renal
